The text below walks through data of patent US8298756B2, “Isolation, gene expression, and chemotherapeutic resistance of motile cancer cells” (Albert Einstein College of Medicine of Yeshiva University, priority 2004, dated 2012).

Experiment [1] deals with invasive cells and general population of carcinoma cells from MTLn3-derived tumors. Nature of the experiment: Cell culture and apoptosis assay (Annexin V-Cy5 / PI) after drug challenge, invasive cells vs general population. The experiment is classed as cell-based, rat. The settings on record: for drug tolerance (apoptotic index and cell viability) of invasive cells: as a percentage of all carcinoma cells, invasive vs general population of tumor cells, 24 hr recovery after drug, FIG. 3; for drug induced apoptotic index / cell death: invasive cells compared to carcinoma cells of the whole tumor, doxorobucin 17 μM, cisplatin 50 μM, etoposide 50 μM for 1 hr, 24 hrs recovery; for drug induced apoptotic index: Annexin V-Cy5; for cell death: PI staining. The method, then:
The cells collected by the needle collection procedure were subjected to drug challenge using doxorobucin (17 μM), cisplatin (50 μM) or etoposide (50 μM). The apoptotic status and viability of these cells was assessed by staining with propedium iodide (PI) and Annexin V-Cy5. […] The graph represents viability status and apoptotic index of the cells after being challenged by the anticancer drugs. Cell culture and apoptosis assay. The cells extruded from the needles and tumor cells FACS sorted were cultured in DMEM 20% FCS along with streptomycin and penicillin, for 16 hrs. Subsequently, the cells were challenged with either doxorobucin (17 μM) or cisplatin (50 μM) or etoposide (50 μM) for 1 hr, washed and allowed to recover for 24 hrs. The cells were then subjected to an apoptosis assay kit containing Annexin V Cy5 for staining the apoptotic cells and Propedium Iodide (PI) for staining the dead cells (BD Biosciences San Jose, Calif.). After staining the cells using the manufacturer's protocol, the cells were observed under a fluorescent microscope in the green, red and high red channel for GFP, PI and Cy5 respectively. The total number of GFP cells counted was compared to the number of PI positive and Annexin V-Cy5 positive cells. […] We challenged the invasive cells with three most commonly used anticancer drugs, doxorobucin, cisplatin and etoposide. […] We performed these studies on the invasive and general populations of cells from MTLn3-derived tumors. After treatment with the drugs the cells were allowed to recover for 24 hr. Subsequently, the apoptotic index and cell viability was measured as described in the Methods section.

For experiment [2], the system named is MTLn3 cells. Particulars: previous studies (Huigsloot et al., 2002); cited from earlier work.

Take `COc1cccc2c1C(=O)c1c(O)c3c(c(O)c1C2=O)C[C@@](O)(C(=O)CO)C[C@@H]3O[C@H]1C[C@H](N)[C@H](O)[C@H](C)O1` [doxorubicin]: in experiment [1], the “drug tolerance (apoptotic index and cell viability) of invasive cells” value is recorded as “invasive cells are able to tolerate all three drugs better than the general population of tumor cells”; the “drug induced apoptotic index” value is listed as “lower drug induced apoptotic index”; the cell death result is listed as “lower cell death”. The induction of apoptosis result in experiment [2] is given as “induce apoptosis”.
Consider `N.N.[Cl][Pt][Cl]` [cisplatin], for which, in experiment [1], the “drug tolerance (apoptotic index and cell viability) of invasive cells” value was “invasive cells are able to tolerate all three drugs better than the general population of tumor cells”; the “drug induced apoptotic index” value is “lower drug induced apoptotic index”; the cell death entry is recorded as “lower cell death”. In addition, the induction of apoptosis result in experiment [2] is on record as “induce apoptosis”.
On to `COc1cc([C@@H]2c3cc4c(cc3[C@@H](O[C@@H]3O[C@@H]5CO[C@@H](C)O[C@H]5[C@H](O)[C@H]3O)[C@H]3COC(=O)[C@H]23)OCO4)cc(OC)c1O` [etoposide], for which, in experiment [1], the “drug tolerance (apoptotic index and cell viability) of invasive cells” value is listed as “invasive cells are able to tolerate all three drugs better than the general population of tumor cells”; the “drug induced apoptotic index” value was “lower drug induced apoptotic index”; the cell death entry was “lower cell death”. Moreover, the induction of apoptosis entry in experiment [2] was “induce apoptosis”.
